Consider 15 compounds from publication PMC8667942 (Journal of Enzyme Inhibition and Medicinal Chemistry, 2021).

Data set [1] addresses T1, recombinant microsomal CYP3A4 (Homo sapiens, UniProt P08684).
T1 construct: purchased Invitrogen P2858; host or cells: BACULOSOMES (microsomes of baculovirus-infected insect cells: own knowledge of the product)
In words: In vitro CYP450 activity assay (Vivid CYP450 Blue screening kit, BOMCC). It counts as in vitro ADME. To be noted: recombinant CYP3A4, 100 nM treatment for 10 min, mean ± SEM.
Experimental: The activity of CYP3A4 was measured using the Vivid® CYP450 Blue screening kit (Cat No. P2858 for 3A4, Invitrogen). […] The system consisted of 100 μL of the final volume. The CYP450 substrate Vivid BOMCC and positive control inhibitor (ketoconazole), were dissolved in acetonitrile. […] The mixture containing test drugs, Vivid® CYP450 BACULOSOMES reagent, and Vivid® Regeneration system (Total 90 μL) was dispensed into a 96-well black plate and incubated at room temperature for 20 min. After adding 10 μL of Vivid® CYP450 reaction buffer (100 μM NADP, 10 μM Vivid® BOMCC), the mixture was incubated for 10 min at room temperature. […] The CYP450 3A4 inhibitory efficiency (%) of the test drug was calculated by comparing the reaction rates of the test compounds with the reaction rate of the positive control group (Ketoconazole) and the negative control group (0.1% Acetonitrile, 0.1% DMSO) using the measured fluorescence values.

The target in data set [2] is purified CYP3A4 (Homo sapiens, UniProt P08684). Nature of the data set: Spectral binding titration of purified CYP3A4. The note with it: 1 µM purified CYP3A4, pH 7.4, no binding = no spectral change up to 200 μM; for Kd: read-out: CYP3A4 Kd (spectral dissociation constant).
Chain of purified CYP3A4 (P08684 whole entry): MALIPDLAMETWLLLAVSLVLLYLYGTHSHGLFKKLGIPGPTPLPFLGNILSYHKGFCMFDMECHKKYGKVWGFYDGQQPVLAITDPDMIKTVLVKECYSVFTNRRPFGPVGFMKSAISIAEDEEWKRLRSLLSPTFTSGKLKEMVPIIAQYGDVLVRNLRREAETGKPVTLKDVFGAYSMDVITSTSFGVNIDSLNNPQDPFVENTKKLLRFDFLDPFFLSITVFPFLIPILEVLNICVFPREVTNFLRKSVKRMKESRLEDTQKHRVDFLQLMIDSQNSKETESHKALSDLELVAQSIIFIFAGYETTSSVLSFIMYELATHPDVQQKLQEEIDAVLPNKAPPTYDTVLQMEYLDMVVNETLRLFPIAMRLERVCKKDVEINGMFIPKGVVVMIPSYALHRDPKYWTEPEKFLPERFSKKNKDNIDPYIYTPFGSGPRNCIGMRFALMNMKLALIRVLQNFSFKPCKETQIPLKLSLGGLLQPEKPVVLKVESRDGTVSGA
Experimental: Purified CYP3A4 enzymes were diluted to 1 µM in 100 mM potassium phosphate buffer (pH 7.4) and then divided into two glass cuvettes. […] The binding titration was analysed using GraphPad Prism software (GraphPad, Inc., La Jolla, CA, USA).
For data set [3], the target named is T2, human IP6K2 (Homo sapiens, UniProt Q9UHH9).
T2 construct: made in house; host or cells: Sf9 insect cells (baculovirus)
T2 sequence (Q9UHH9 1-426): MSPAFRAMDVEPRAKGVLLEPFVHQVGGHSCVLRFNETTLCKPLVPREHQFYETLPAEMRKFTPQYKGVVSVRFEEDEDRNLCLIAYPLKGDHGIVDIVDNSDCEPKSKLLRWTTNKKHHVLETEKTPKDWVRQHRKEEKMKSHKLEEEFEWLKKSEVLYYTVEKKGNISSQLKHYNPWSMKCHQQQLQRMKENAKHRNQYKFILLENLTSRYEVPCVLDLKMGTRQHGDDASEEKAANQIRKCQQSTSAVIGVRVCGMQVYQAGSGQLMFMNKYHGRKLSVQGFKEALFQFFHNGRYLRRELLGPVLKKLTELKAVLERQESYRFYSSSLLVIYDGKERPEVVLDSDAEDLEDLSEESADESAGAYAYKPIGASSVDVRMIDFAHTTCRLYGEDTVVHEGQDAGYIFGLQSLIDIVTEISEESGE
In words: IP6K2 inhibition assay (ADP Glo kinase assay). It counts as biochemical. To be noted: purified human IP6K2, 10 μM IP6, 10 μM ATP, 8-dose, triplicate, mean ± SEM. Here is the method:
Full-length human IP6K2 cDNA was subcloned into pFASTBAC1 plasmid (Gibco) with an N-terminal FLAG epitope sequence, and baculovirus was generated according to the manufacturer’s instructions. Sf9 insect cells were infected with baculovirus and incubated for 72 h. The cells were resuspended in lysis buffer [20 mM Tris–HCl (pH 7.9), 500 mM NaCl, 4 mM MgCl2, 0.4 mM EDTA, 2 mM DTT, 20% glycerol, 1 mM PMSF, and protease inhibitor cocktail (Roche)] and then disrupted with a Dounce homogeniser (pestle A, 3 series of 10 strokes with 10 min interval).
IP6K2 activity was measured using ADP Glo assay kit (Promega). All kinase assays were performed in low volume 384-well white plates (784075, Greiner-bioone) with a final volume of 5 μL. The reaction buffer contained 2 ng Flag-hIP6K2, 10 μM IP6, and 10 μM ATP in kinase buffer (50 mM Tris, 10 mM MgCl2, 2.5 mM DTT, 0.02% Triton-X-100, pH 6.8)[26]. For dose-dependent inhibition assay, 8 serial 2-fold dilutions of test compounds were prepared in DMSO. The final DMSO concentration was 5% in each reaction. The test compounds (5X, 25% DMSO in 1X kinase buffer) were dispensed to each well, and 2.5 X IP6K2 in kinase buffer were added. After 15 min incubation at room temperature, 2.5 X concentrations of IP6 and ATP were added to the plate. The reaction plate was incubated in a 37 °C incubator for 30 min. Next, the reactions were quenched with 5 μL of ADP Glo reagent for 40 min to deplete the remaining ATP. To convert the remaining ADP to ATP, 10 μl of detection reagent were added and incubated for 30–60 min. The luminescence of the final reactants was measured using the Mithras LB940 plate reader from Berthold. Samples were run in triplicate and the activity (%) was calculated using the following equations; Activity (%) = 100 × (μexperimental–μnegative)/(μpositive–μnegative). Negative control was DSMO-treated reaction. IC50 value was estimated using a logistic regression model with R package.

Data set [4] relates to IP7 synthesis in HCT116 cells. Nature of the data set: Quantification of intracellular inositol phosphates by HPLC in radiolabeled HCT116. To be noted: HCT116, 50 μM, 4 h. It counts as cell-based, human. The protocol:
For HPLC analysis, 2 × 10^5 cells/60 mm dish of HCT116 were treated with 75 μCi [^3H] myo-inositol (NET1177001MC, PerkinElmer). After 3 days, soluble inositol polyphosphates from HCT116 (human colorectal cancer cell line) were extracted and analysed as previously described. Intracellular inositol phosphates were extracted with acid extraction buffer (1 M HClO4, 3 mM EDTA, and 0.1 mg/ml1 IP6), and neutralised with neutralisation buffer (1 M K2CO3 and 3 mM EDTA). The lysates were centrifuged for 10 min, and the soluble fraction was resolved by HPLC as described earlier. The lipid pellet was lysed with 0.1% Triton X-100 in NaOH overnight. Each fraction was mixed with Ultima-Flo AP liquid scintillation cocktail (6013599, PerkinElmer), and radioactivity was counted in a scintillation counter. Quantity of inositol phosphates was presented as total counts/min (CPM) normalised by total lipid contents.

Data set [5] relates to Akt phosphorylation at Thr308 in HCT116 cells. Nature of the data set: AKT activation in HCT116 cells (Western blot). The note with it: HCT116, 50 μM, 4 h, pAkt/Akt by Western blot. Format: cell-based, human. Here is the method: Total proteins were quantified by bicinchoninic acid assay (23225, Thermo Fisher Scientific). Total 20 μg proteins were resolved in 8% SDS–PAGE, and then Akt phosphorylation was probed with primary antibodies against, phospho–Akt (Thr308) (4056) and Akt (9272) (Cell Signalling) and HRP-conjugated secondary antibody. The relative band intensities of Akt phosphorylation to total Akt were quantified with Image J software.
(In general: Immunoblotting shows a protein as a band on a membrane.)

The structures appear in SMILES notation. “And” between values parts separate entries of the source, which are not always exact repeats. Equal values may be shown once. “Also recorded” adds a separate entry of the source.

T1 sequence (P08684 whole entry): as the sequence (P08684 whole entry) above

Regarding `FC(F)(F)c1cccc(CNc2nc(NCc3nc4ccccc4[nH]3)c3nc[nH]c3n2)c1` [Compound 17, N^6-((1H-benzo[d]imidazol-2-yl)methyl)-N^2-(3-(trifluoromethyl)benzyl)-9H-purine-2,6-diamine], the melting point (in general, the temperature, or range, at which the solid turns liquid) came to 289 °C. Besides, the “Relative 3A4 inhibition (% of TNP)” value in data set [1] is 116 ± 3 % of TNP. In addition, the dissociation constant Kd (usually the constant that tells how readily two partners part at equilibrium) in data set [2] came out at 7.9 ± 0.8 µM. Moreover, in data set [3], 12.6 ± 0.4 µM corresponded to half-maximal inhibition (IC50).
Turning to `CS(=O)(=O)c1ccc(CNc2nc(NCc3ccc(F)cc3)nc3[nH]cnc23)cc1` [Compound 7, N^2-(4-fluorobenzyl)-N^6-(4-(methylsulfonyl)benzyl)-9H-purine-2,6-diamine], the Kd in data set [2] turned out to be 28.8 ± 2.7 µM. The midpoint of inhibition in data set [3], the IC50, lay at 7.3 ± 0.5 µM.
The compound `Fc1ccc(CNc2nc(NCc3nc4ccccc4[nH]3)c3nc[nH]c3n2)cc1` [Compound 18, N^6-((1H-benzo[d]imidazol-2-yl)methyl)-N^2-(4-fluorobenzyl)-9H-purine-2,6-diamine] displayed a melting point of 287 °C. Also, in data set [1], the “Relative 3A4 inhibition (% of TNP)” value is on record as 120 ± 1 % of TNP. In addition, the Kd in data set [2] came out at 11.1 ± 1 µM. For the same compound, the concentration for half-maximal inhibition (IC50) (as a rule, the concentration that inhibits the measured activity by half) in data set [3] stood at 13.2 ± 0.4 µM.
Consider `Clc1ccc(CNc2nc(NCc3nc4ccccc4[nH]3)c3nc[nH]c3n2)cc1` [Compound 19, N^6-((1H-benzo[d]imidazol-2-yl)methyl)-N^2-(4-chlorobenzyl)-9H-purine-2,6-diamine], for which the melting point is 160 °C. The “Relative 3A4 inhibition (% of TNP)” value in data set [1] is 120 ± 0.66 % of TNP. The Kd in data set [2] turned out to be 16.9 ± 3.7 µM. Further, the IC50 in data set [3] was 19.3 ± 0.27 µM.
With `FC(F)(F)c1cccc(CNc2nc(NCc3cccnc3)c3nc[nH]c3n2)c1` [Compound 10, N^6-(pyridin-3-ylmethyl)-N^2-(3-(trifluoromethyl)benzyl)-9H-purine-2,6-diamine], in data set [2], the Kd is 1.4 ± 0.5 µM. The IC50 in data set [3] was found to be 5.3 ± 0.3 µM.
On to `Clc1ccc(CNc2nc(NCc3ncc[nH]3)c3nc[nH]c3n2)cc1` [Compound 16, N^6-((1H-imidazol-2-yl)methyl)-N^2-(4-chlorobenzyl)-9H-purine-2,6-diamine], for which the Kd in data set [2] was found to be 40.5 ± 8 µM. In data set [3], the IC50 came to 19.9 ± 0.1 µM.
As for `Clc1ccc(CNc2nc(NCc3cccnc3)c3nc[nH]c3n2)cc1` [Compound 12, N^2-(4-chlorobenzyl)-N^6-(pyridin-3-ylmethyl)-9H-purine-2,6-diamine], the Kd in data set [2] turned out to be 1.8 ± 0.6 µM.
In the case of `O=[N+]([O-])c1ccc(CNc2nc(NCc3nc4ccccc4[nH]3)c3nc[nH]c3n2)cc1` [Compound 20, N^6-((1H-benzo[d]imidazol-2-yl)methyl)-N^2-(4-nitrobenzyl)-9H-purine-2,6-diamine], the melting point came to 153 °C. For the same compound, the “Relative 3A4 inhibition (% of TNP)” value in data set [1] was 65.7 ± 1.97 % of TNP. The “CYP3A4 Kd (spectral dissociation constant)” value (“CYP3A4 Kd” below) in data set [2] is “did not show any spectral dissociation constant value; also recorded: without binding to CYP3A4; also recorded: No binding^d”. In addition, the concentration for half-maximal inhibition (IC50) in data set [3] was determined as 21.8 ± 0.3 µM. Further, in data set [4], the “IP4, IP5, and IP6 levels” value was “without notable changes”; the “cellular IP7 synthesis (effect in words)” value is recorded as “reduced cellular IP7 synthesis”. Moreover, the “increase in Akt phosphorylation at Thr308 compared to vehicle treatment” value (shortened to “increase in Akt phosphorylation”) in data set [5] is given as “more than 1.5 fold”.
Consider `CS(=O)(=O)c1ccc(CNc2nc(NCc3ccc(Cl)cc3)nc3[nH]cnc23)cc1` [Compound 8, N^2-(4-chlorobenzyl)-N^6-(4-(methylsulfonyl)benzyl)-9H-purine-2,6-diamine], for which the Kd in data set [2] was 14.4 ± 3.3 µM.
Take `CS(=O)(=O)c1ccc(CNc2nc(NCc3ccc([N+](=O)[O-])cc3)nc3[nH]cnc23)cc1` [Compound 9, N^6-(4-(methylsulfonyl)benzyl)-N^2-(4-nitrobenzyl)-9H-purine-2,6-diamine]: the “CYP3A4 Kd” value in data set [2] was “did not show any binding spectral change; also recorded: without binding to CYP3A4; also recorded: No binding^d”. For the same compound, in data set [3], the half-maximal inhibitory concentration (IC50) is 16 µM and 16.8 µM. In data set [4], the “IP4, IP5, and IP6 levels” value is “without notable changes”; the “cellular IP7 synthesis (effect in words)” value was “reduced cellular IP7 synthesis”; the “decrease of cellular IP7 synthesis compared to DMSO” value is reported as about 44%. Moreover, the “increase in Akt phosphorylation” value in data set [5] is reported as “more than 1.5 fold”.
Turning to `FC(F)(F)c1cccc(CNc2nc(NCc3ncc[nH]3)c3nc[nH]c3n2)c1` [Compound 14, N^6-((1H-imidazol-2-yl)methyl)-N^2-(3-(trifluoromethyl)benzyl)-9H-purine-2,6-diamine], the Kd in data set [2] is 22.2 ± 4.5 µM. Moreover, the midpoint of inhibition in data set [3], the IC50, lay at 34.7 ± 0.7 µM.
Consider `Fc1ccc(CNc2nc(NCc3ncc[nH]3)c3nc[nH]c3n2)cc1` [Compound 15, N^6-((1H-imidazol-2-yl)methyl)-N^2-(4-fluorobenzyl)-9H-purine-2,6-diamine], for which, in data set [2], the “CYP3A4 Kd” value is “did not display any binding spectral change; also recorded: without binding to CYP3A4; also recorded: No binding^d”. In data set [3], the IC50 was determined as 24.7 ± 0.2 µM. In addition, in data set [4], the “IP4, IP5, and IP6 levels” value was “without notable changes”; the “cellular IP7 synthesis (effect in words)” value is “reduced cellular IP7 synthesis”. Further, the “increase in Akt phosphorylation” value in data set [5] was “more than 1.5 fold”.
In turn, `O=[N+]([O-])c1ccc(CNc2nc(NCc3cccnc3)c3nc[nH]c3n2)cc1` [Compound 13, N^2-(4-nitrobenzyl)-N^6-(pyridin-3-ylmethyl)-9H-purine-2,6-diamine] came in with a melting point of 251 °C. Also, the “Relative 3A4 inhibition (% of TNP)” value in data set [1] is listed as 126 ± 1 % of TNP. The Kd in data set [2] stood at 2 ± 0.5 µM. In addition, the midpoint of inhibition in data set [3], the IC50, lay at 3.3 ± 0.8 µM.
Regarding `CS(=O)(=O)c1ccc(CNc2nc(NCc3cccc(C(F)(F)F)c3)nc3[nH]cnc23)cc1` [Compound 6, N^6-(4-(methylsulfonyl)benzyl)-N^2-(3-(trifluoromethyl)benzyl)-9H-purine-2,6-diamine], the dissociation constant (Kd) in data set [2] turned out to be 24.8 ± 4.3 µM. The compound also displayed a half-inhibitory concentration (IC50) in data set [3] of 4.6 ± 0.2 µM.
In the case of `Fc1ccc(CNc2nc(NCc3cccnc3)c3nc[nH]c3n2)cc1` [Compound 11, N^2-(4-fluorobenzyl)-N^6-(pyridin-3-ylmethyl)-9H-purine-2,6-diamine], the Kd in data set [2] was 3 ± 0.6 µM. For the same compound, in data set [3], the 50% inhibitory concentration (IC50) worked out at 5.9 ± 0.2 µM.
